Measured values: ChEMBL document CHEMBL4396937, “Synthesis of new triazole fused imidazo[2,1-b]thiazole hybrids with emphasis on Staphylococcus aureus virulence factors” (Bioorg Med Chem Lett, 2019)
≈ marks a conversion by molar mass, not a printed value.

Assays:
Format in all cases: functional
[1] = test system: Staphylococcus aureus; test: Bactericidal activity against Staphylococcus aureus MTCC 96 assessed as reduction in bacterial survival incubated for 24 hrs followed by transfer of microbial suspension to agar plates and measured at 24 hrs post transfer by agar well diffusion method; conditions: MTCC 96, 24 h
[2] = test system: Escherichia coli; test: Antibacterial activity against Escherichia coli MTCC 739 assessed as reduction in bacterial growth incubated for 24 hrs by agar well diffusion method; conditions: MTCC 739, 24 h
[3] = test system: Raoultella planticola; test: Antibacterial activity against Klebsiella planticola MTCC 530 assessed as reduction in bacterial growth incubated for 24 hrs by agar well diffusion method; conditions: MTCC 530, 24 h
[4] = test system: Pseudomonas aeruginosa; test: Antibacterial activity against Pseudomonas aeruginosa MTCC 2453 assessed as reduction in bacterial growth incubated for 24 hrs by agar well diffusion method; conditions: MTCC 2453, 24 h
[5] = test system: Micrococcus luteus; test: Bactericidal activity against Micrococcus luteus MTCC 2470 assessed as reduction in bacterial survival incubated for 24 hrs followed by transfer of microbial suspension to agar plates and measured at 24 hrs post transfer by agar well diffusion method; conditions: MTCC 2470, 24 h
[6] = test system: Escherichia coli; test: Bactericidal activity against Escherichia coli MTCC 739 assessed as reduction in bacterial survival incubated for 24 hrs followed by transfer of microbial suspension to agar plates and measured at 24 hrs post transfer by agar well diffusion method; conditions: MTCC 739, 24 h
[7] = test system: Bacillus subtilis; test: Antibacterial activity against Bacillus subtilis MTCC 121 assessed as reduction in bacterial growth incubated for 24 hrs by agar well diffusion method; conditions: MTCC 121, 24 h
[8] = test system: Raoultella planticola; test: Bactericidal activity against Klebsiella planticola MTCC 530 assessed as reduction in bacterial survival incubated for 24 hrs followed by transfer of microbial suspension to agar plates and measured at 24 hrs post transfer by agar well diffusion method; conditions: MTCC 530, 24 h
[9] = test system: Candida albicans; test: Fungicidal activity against Candida albicans MTCC 3017 assessed as reduction in fungal survival incubated for 24 hrs followed by transfer of microbial suspension to agar plates and measured at 24 hrs post transfer by agar well diffusion method; conditions: MTCC 3017, 24 h
[10] = test system: Candida albicans; test: Antifungal activity against Candida albicans MTCC 3017 assessed as reduction in fungal growth incubated for 24 hrs by agar well diffusion method; conditions: MTCC 3017, 24 h
[11] = test system: Staphylococcus aureus; test: Bactericidal activity against Staphylococcus aureus MLS-16 MTCC 2940 assessed as reduction in bacterial survival incubated for 24 hrs followed by transfer of microbial suspension to agar plates and measured at 24 hrs post transfer by agar well diffusion method; conditions: MLS-16 MTCC 2940, 24 h
[12] = test system: Staphylococcus aureus; test: Antibacterial activity against Staphylococcus aureus MTCC 96 assessed as reduction in bacterial growth incubated for 24 hrs by agar well diffusion method; conditions: MTCC 96, 24 h
[13] = test system: Bacillus subtilis; test: Bactericidal activity against Bacillus subtilis MTCC 121 assessed as reduction in bacterial survival incubated for 24 hrs followed by transfer of microbial suspension to agar plates and measured at 24 hrs post transfer by agar well diffusion method; conditions: MTCC 121, 24 h
[14] = test system: Micrococcus luteus; test: Antibacterial activity against Micrococcus luteus MTCC 2470 assessed as reduction in bacterial growth incubated for 24 hrs by agar well diffusion method; conditions: MTCC 2470, 24 h
[15] = test system: Pseudomonas aeruginosa; test: Bactericidal activity against Pseudomonas aeruginosa MTCC 2453 assessed as reduction in bacterial survival incubated for 24 hrs followed by transfer of microbial suspension to agar plates and measured at 24 hrs post transfer by agar well diffusion method; conditions: MTCC 2453, 24 h
[16] = test system: Staphylococcus aureus; test: Antibacterial activity against Staphylococcus aureus MLS-16 MTCC 2940 assessed as reduction in bacterial growth incubated for 24 hrs by agar well diffusion method; conditions: MLS-16 MTCC 2940, 24 h

Row | SMILES | MBC [1] [µg/mL] | MIC [2] [µg/mL] | MIC [3] [µg/mL] | MIC [4] [µg/mL] | MBC [5] [µg/mL] | MBC [6] [µg/mL] | MIC [7] [µg/mL] | MBC [8] [µg/mL] | MFC [9] [µg/mL] | MIC [10] [µg/mL] | MBC [11] [µg/mL] | MIC [12] [µg/mL] | MBC [13] [µg/mL] | MIC [14] [µg/mL] | MBC [15] [µg/mL] | MIC [16] [µg/mL]
1 | COc1ccc(-c2nc3sccn3c2C(=O)c2cn(-c3ccc(Cl)cc3)nn2)cc1 | 7.8 (≈ 17.9 µM) | > 125 | > 125 | > 125 | 7.8 (≈ 17.9 µM) | > 125 | 3.9 (≈ 8.95 µM) | > 125 | 31.2 (≈ 71.6 µM) | 15.6 (≈ 35.8 µM) | 15.6 (≈ 35.8 µM) | 3.9 (≈ 8.95 µM) | 7.8 (≈ 17.9 µM) | 3.9 (≈ 8.95 µM) | > 125 | 7.8 (≈ 17.9 µM)
2 | COc1cc(-n2cc(C(=O)c3c(-c4ccc(Cl)cc4)nc4sccn34)nn2)cc(OC)c1OC | 15.6 (≈ 31.5 µM) | > 125 | > 125 | > 125 | 31.2 (≈ 62.9 µM) | > 125 | 3.9 (≈ 7.86 µM) | > 125 | 31.2 (≈ 62.9 µM) | 15.6 (≈ 31.5 µM) | 15.6 (≈ 31.5 µM) | 7.8 (≈ 15.7 µM) | 7.8 (≈ 15.7 µM) | 15.6 (≈ 31.5 µM) | > 125 | 7.8 (≈ 15.7 µM)
3 | COc1ccc(-c2nc3sccn3c2C(=O)c2cn(-c3ccc(F)cc3)nn2)cc1 | 7.8 (≈ 18.6 µM) | > 125 | > 125 | > 125 | 7.8 (≈ 18.6 µM) | > 125 | 3.9 (≈ 9.3 µM) | > 125 | 31.2 (≈ 74.4 µM) | 15.6 (≈ 37.2 µM) | 15.6 (≈ 37.2 µM) | 3.9 (≈ 9.3 µM) | 7.8 (≈ 18.6 µM) | 3.9 (≈ 9.3 µM) | > 125 | 7.8 (≈ 18.6 µM)
4 | O=C(c1cn(-c2ccc(F)cc2Br)nn1)c1c(-c2ccc(Cl)cc2)nc2sccn12 | 7.8 (≈ 15.5 µM) | > 125 | 3.9 (≈ 7.76 µM) | > 125 | 7.8 (≈ 15.5 µM) | > 125 | 3.9 (≈ 7.76 µM) | 7.8 (≈ 15.5 µM) | 15.6 (≈ 31 µM) | 7.8 (≈ 15.5 µM) | 15.6 (≈ 31 µM) | 3.9 (≈ 7.76 µM) | 7.8 (≈ 15.5 µM) | 3.9 (≈ 7.76 µM) | > 125 | 7.8 (≈ 15.5 µM)
5 | COc1ccc(-n2cc(C(=O)c3c(-c4ccc(Cl)cc4)nc4sccn34)nn2)cc1 | 7.8 (≈ 17.9 µM) | > 125 | 3.9 (≈ 8.95 µM) | > 125 | 7.8 (≈ 17.9 µM) | > 125 | 3.9 (≈ 8.95 µM) | 7.8 (≈ 17.9 µM) | 15.6 (≈ 35.8 µM) | 7.8 (≈ 17.9 µM) | 15.6 (≈ 35.8 µM) | 3.9 (≈ 8.95 µM) | 7.8 (≈ 17.9 µM) | 3.9 (≈ 8.95 µM) | > 125 | 7.8 (≈ 17.9 µM)
6 | COc1ccc(-c2nc3sccn3c2C(=O)c2cn(-c3ccc(F)cc3Br)nn2)cc1 | 7.8 (≈ 15.7 µM) | > 125 | 15.6 (≈ 31.3 µM) | > 125 | 7.8 (≈ 15.7 µM) | > 125 | 7.8 (≈ 15.7 µM) | 15.6 (≈ 31.3 µM) | 15.6 (≈ 31.3 µM) | 7.8 (≈ 15.7 µM) | 15.6 (≈ 31.3 µM) | 3.9 (≈ 7.83 µM) | 15.6 (≈ 31.3 µM) | 3.9 (≈ 7.83 µM) | > 125 | 7.8 (≈ 15.7 µM)
7 | O=C(c1cn(-c2ccc(C(F)(F)F)cc2)nn1)c1c(-c2ccccc2)nc2sccn12 | 7.8 (≈ 17.8 µM) | > 125 | > 125 | > 125 | 7.8 (≈ 17.8 µM) | > 125 | 3.9 (≈ 8.88 µM) | > 125 | 31.2 (≈ 71 µM) | 15.6 (≈ 35.5 µM) | 15.6 (≈ 35.5 µM) | 3.9 (≈ 8.88 µM) | 7.8 (≈ 17.8 µM) | 3.9 (≈ 8.88 µM) | > 125 | 7.8 (≈ 17.8 µM)
8 | COc1ccc(-c2nc3sccn3c2C(=O)c2cn(-c3cc(OC)c(OC)c(OC)c3)nn2)cc1 | 31.2 (≈ 63.5 µM) | > 125 | > 125 | > 125 | 31.2 (≈ 63.5 µM) | > 125 | 15.6 (≈ 31.7 µM) | > 125 | 15.6 (≈ 31.7 µM) | 7.8 (≈ 15.9 µM) | 15.6 (≈ 31.7 µM) | 15.6 (≈ 31.7 µM) | 31.2 (≈ 63.5 µM) | 15.6 (≈ 31.7 µM) | > 125 | 7.8 (≈ 15.9 µM)
9 | O=C(c1cn(-c2ccc(F)cc2)nn1)c1c(-c2ccccc2)nc2sccn12 | > 125 | > 125 | > 125 | > 125 | > 125 | > 125 | 7.8 (≈ 20 µM) | > 125 | 31.2 (≈ 80.1 µM) | 15.6 (≈ 40.1 µM) | > 125 | > 125 | 15.6 (≈ 40.1 µM) | > 125 | > 125 | > 125
10 | COc1cc(-n2cc(C(=O)c3c(-c4ccccc4)nc4sccn34)nn2)cc(OC)c1OC | 7.8 (≈ 16.9 µM) | > 125 | 31.2 (≈ 67.6 µM) | > 125 | 7.8 (≈ 16.9 µM) | > 125 | 3.9 (≈ 8.45 µM) | 62.5 (≈ 135 µM) | 31.2 (≈ 67.6 µM) | 15.6 (≈ 33.8 µM) | 15.6 (≈ 33.8 µM) | 3.9 (≈ 8.45 µM) | 7.8 (≈ 16.9 µM) | 3.9 (≈ 8.45 µM) | > 125 | 7.8 (≈ 16.9 µM)
